In this assay the target is Acetylcholinesterase (Homo sapiens, UniProt P22303). Kind of assay: Compound was tested for the in silico inhibition of acetylcholinesterase.
Chain of Acetylcholinesterase (P22303 whole entry): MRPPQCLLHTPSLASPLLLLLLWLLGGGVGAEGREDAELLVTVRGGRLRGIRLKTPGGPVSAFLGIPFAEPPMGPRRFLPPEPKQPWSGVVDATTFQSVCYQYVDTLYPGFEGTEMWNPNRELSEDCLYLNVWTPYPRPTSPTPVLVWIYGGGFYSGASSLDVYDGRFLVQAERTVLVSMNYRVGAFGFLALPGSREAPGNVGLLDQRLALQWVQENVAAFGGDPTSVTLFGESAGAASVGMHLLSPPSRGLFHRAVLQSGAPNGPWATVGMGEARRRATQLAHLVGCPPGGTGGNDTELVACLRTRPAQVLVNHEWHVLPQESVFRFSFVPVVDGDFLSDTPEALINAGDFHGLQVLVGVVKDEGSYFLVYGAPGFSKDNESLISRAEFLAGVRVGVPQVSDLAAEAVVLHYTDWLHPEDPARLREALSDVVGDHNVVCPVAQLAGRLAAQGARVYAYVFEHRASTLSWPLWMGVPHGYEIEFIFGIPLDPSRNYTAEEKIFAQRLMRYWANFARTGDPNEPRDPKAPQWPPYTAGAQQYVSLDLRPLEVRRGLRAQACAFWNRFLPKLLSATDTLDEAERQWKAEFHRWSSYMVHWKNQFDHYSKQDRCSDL

Usually IC50 stands for the concentration that inhibits the measured activity by half. Higher therefore signals a need for much substance. Compound `CO[C@H]1CC[C@@]2(C)C(=CC[C@H]3[C@@H]4CC[C@H]([C@H](C)N(C)C)[C@@]4(C)CC[C@@H]32)C1` showed an IC50 of 42.7 µM. `C/C=C(\C)C(=O)N[C@H]1CC[C@@]2(C)C(=CC[C@H]3C4=CC[C@H]([C@H](C)N(C)C)[C@@]4(C)CC[C@@H]32)C1=O` showed a half-inhibitory concentration (IC50) of 5.75 µM. `C/C=C(\C)C(=O)N[C@@H]1[C@H](O)C2CC[C@H]3C4=CC[C@H]([C@H](C)N(C)C)[C@@]4(C)CC[C@@H]3[C@@]2(C)C[C@@H]1O` (stereo not given in full) gave an IC50 of 33.1 µM. On to `CO[C@H]1CC[C@@]2(C)C(=CC[C@@H]3[C@@H]2CC[C@]2(C)C([C@H](C)N(C)C=O)=CC[C@@H]32)C1`, for which it took 49 µM to reach half-maximal inhibition (IC50). The same measure for `C/C=C(\C)C(=O)NC1=CC[C@@]2(C)[C@@H](CC[C@H]3C4CC[C@H]([C@H](C)N(C)C)[C@@]4(C)CC[C@@H]32)C1=O` (stereo not given in full): 13.8 µM. In turn, `C/C(=C\C(=O)N(C)[C@H]1CC[C@@]2(C)[C@@H](CC[C@@H]3[C@@H]2CC[C@]2(C)[C@@H]([C@H](C)N(C)C)CC[C@@H]32)C1)C(C)C` had an IC50 of 6.46 µM. This IC50 lies about 2.1-fold lower than the previous one. `CC(=O)O[C@H]1[C@@H](NC(=O)c2ccccc2)[C@@H](O)C[C@]2(C)[C@H]3CC[C@]4(C)[C@@H]([C@H](C)N(C)C)CC[C@H]4[C@@H]3CC[C@@H]12` showed an IC50 of 229 µM. Compound `C/C=C(\C)C(=O)N[C@@H]1[C@H](OC(C)=O)[C@@H]2CC[C@H]3C4=CC[C@H]([C@H](C)N(C)C)[C@@]4(C)CC[C@@H]3[C@@]2(C)C[C@@H]1O` showed an IC50 of 61.7 µM. As for `CO[C@@H]1CC2=CC[C@@H]3[C@H](CC[C@]4(C)C([C@H](C)N(C)C)=CC[C@@H]34)[C@@]2(C)C[C@@H]1O`, the IC50 is 251 µM. `C/C=C(\C)C(=O)N[C@@H]1C=C2CC[C@H]3[C@@H]4CC[C@H]([C@H](C)N(C)C)[C@@]4(C)CC[C@@H]3[C@@]2(C)C[C@@H]1O`: 15.8 µM corresponded to half-maximal inhibition (IC50). Next, `C[C@@H]([C@H]1CC[C@H]2[C@@H]3CC[C@H]4C[C@@H](NC(=O)c5ccccc5)[C@@H](O)C[C@]4(C)[C@H]3CC[C@]12C)N(C)C`: 77.6 µM; `CC(=O)O[C@@H]1C2CC[C@H]3C4CC=C([C@H](C)N(C)C)[C@@]4(C)CC[C@@H]3[C@@]2(C)CC[C@@H]1NC(=O)C=C(C)C` (stereo not given in full): 5.25 µM; `C[C@@H]([C@H]1CC[C@H]2[C@@H]3CC[C@H]4C[C@@H](NC(=O)c5ccccc5)CC[C@]4(C)[C@H]3CC[C@]12C)N(C)C` [EPIPACHYSAMINE D]: 28.8 µM.

The compound `C[C@@H]([C@H]1CC[C@H]2[C@@H]3CC[C@H]4C(=O)C(NC(=O)c5ccccc5)=CC[C@]4(C)[C@H]3CC[C@]12C)N(C)C` had an IC50 of 5.25 µM. `C/C=C(\C)C(=O)N[C@H]1CC[C@@]2(C)C(=CC[C@H]3[C@@H]4CC[C@H]([C@H](C)N(C)C)[C@@]4(C)CC[C@@H]32)[C@H]1O` showed an IC50 of 30.2 µM. Compound `C/C=C(\C)C(=O)N[C@H]1CC[C@@]2(C)C(=CC[C@H]3[C@@H]4CC[C@H]([C@H](C)N(C)C)[C@@]4(C)CC[C@@H]32)C1=O` gave an IC50 of 7.08 µM. Against the preceding compound, the IC50 is about 4.3-fold lower. The same measure for `CC(=O)N(C)[C@@H](C)[C@H]1CC[C@H]2[C@@H]3CC[C@H]4C[C@@H](N(C)C)CC[C@]4(C)[C@H]3CC[C@]12C`: 50.1 µM; for `C[C@H](NC=O)[C@H]1CC[C@H]2[C@@H]3CC[C@H]4C[C@@H](N(C)C)CC[C@]4(C)[C@H]3CC[C@]12C`: 6.46 µM; for `C/C(=C\C(=O)N(C)[C@H]1CC[C@@]2(C)[C@@H](CC[C@@H]3[C@@H]2CC[C@]2(C)C([C@H](C)N(C)C)=CC[C@@H]32)C1)C(C)C`: 6.17 µM. The same measure for `C/C=C(\C)C(=O)N[C@@H]1[C@H](OC(C)=O)[C@@H]2CC[C@@H]3[C@H](CC[C@]4(C)[C@@H]([C@H](C)N(C)C)CC[C@@H]34)[C@@]2(C)C[C@@H]1O`: 182 µM; for `CN[C@H]1CC[C@@]2(C)[C@@H](CC[C@@H]3[C@@H]2CC[C@]2(C)C([C@H](C)N(C)C)=CC[C@@H]32)C1`: 20.4 µM. Next, `CC(=O)N[C@H]1CC[C@@]2(C)[C@@H](CC[C@@H]3[C@@H]2CC[C@]2(C)[C@@H]([C@H](C)N(C)C)CC[C@@H]32)C1`: 69.2 µM; `C/C=C(\C)C(=O)N[C@H]1C(OC(C)=O)C[C@@]2(C)C(CC[C@H]3C4CC=C([C@H](C)N(C)C)[C@@]4(C)CC[C@@H]32)[C@H]1OC(C)=O` (stereo not given in full): 50.1 µM. Take `CC(=O)N(C)[C@H]1CC[C@@]2(C)[C@@H](CC[C@@H]3[C@@H]2CC[C@]2(C)[C@@H]([C@H](C)N(C)C)CC[C@@H]32)C1`: the IC50 was 70.8 µM. This IC50 and that of the compound before are within 1.5-fold of each other.

Compound `C[C@@H]([C@H]1CC[C@H]2[C@@H]3CC=C4C[C@@H](N(C)C)CC[C@]4(C)[C@H]3CC[C@]12C)N(C)C` gave an IC50 of 39.8 µM. The same measure for `CN[C@@H](C)C1=CC[C@H]2[C@@H]3CC=C4C[C@@H](OC)CC[C@]4(C)[C@H]3CC[C@]12C`: 83.2 µM. Next, `C/C=C(\C)C(=O)N[C@@H]1C=C2CC[C@H]3C4=CC[C@H]([C@H](C)N(C)C)[C@@]4(C)CC[C@@H]3[C@@]2(C)CC1`: 7.76 µM; `C[C@@H]([C@H]1CC[C@H]2[C@@H]3CC[C@H]4C[C@@H](N(C)C(=O)/C=C/c5ccccc5)CC[C@]4(C)[C@H]3CC[C@]12C)N(C)C` [SALIGCINNAMIDE]: 19.5 µM; `CC(=O)N(C)[C@@H](C)[C@H]1CC[C@H]2[C@@H]3CC=C4C[C@@H](N(C)C)CC[C@]4(C)[C@H]3CC[C@]12C`: 20 µM. `CN[C@H]1CC[C@@]2(C)C(CC[C@H]3[C@@H]4CC[C@H]([C@H](C)N(C)C)[C@@]4(C)CC[C@@H]32)C1` (stereo not given in full) showed an IC50 of 6.17 µM.

The record behind these values is ChEMBL document CHEMBL1136484, “3D-QSAR studies on natural acetylcholinesterase inhibitors of Sarcococca saligna by comparative molecular field analysis (CoMFA)” (Bioorg Med Chem Lett, 2003).
